row,SMILES,melting point
1,Nc1ccc(C(=O)O)c([N+](=O)[O-])c1,230 °C
2,Cn1cc(C(=O)O)c(=O)c2cc3cc(F)c(N4CCNC(c5ccc(OCCO)cc5)C4)c(F)c3nc21 (racemic),226 to 228 °C
3,CCOC(=O)C1OC1C(=O)N(C)C1CCCCC1 (centres undefined),52 to 55 °C
4,CCCOc1ccc(S(=O)(=O)N2CCC(C(=O)OCC)CC2)cc1-c1nc2cc3nc[nH]c3cc2c(=O)[nH]1,145 to 147 °C
5,CC(CN(C)S(C)(=O)=O)n1nnc2cc3c(=O)n(C4CC4)nnc3cc2c1=O (centres undefined),170 to 172 °C
6,CCOC(=O)c1cnn(C)c1C(=O)Nc1ccn2nc(-c3cccc(F)c3)nc2c1,246 to 249 °C
7,CN1CCC(C2Nc3cc(Br)ccc3N3CCc4cccc2c43)CC1 (centres undefined),206 to 208 °C
8,CCCCC(CC)C(c1ccc(O)cc1)c1ccc(O)cc1 (centres undefined),87 °C
9,CC(C)(C)SC1CN(C(=O)OCc2ccccc2)CC1NS(=O)(=O)c1ccc(Oc2ccccc2)cc1 (centres undefined),125 to 126 °C
10,C=C(C)COc1ccc2c(=O)c(C)c(-c3ccccc3)oc2c1C(=O)C=Cc1cccc(OC)c1,131 to 134 °C
11,O=C1c2cc3cc(O)ccc3n2CC1CC1CCN(Cc2ccccc2)CC1 (centres undefined),186 to 188 °C
12,CCCCOc1ccccc1-c1ncc(C(=O)OCC)c(=O)[nH]1,123 to 125 °C
13,CCOC(=O)C(=CNc1coc2ccc(Cl)cc2c1=O)C(=O)OCC,143 to 145 °C
14,Cc1ccc(S(N)(=O)=O)cc1-c1nc(C(F)(F)F)oc1-c1ccccc1,150 to 151 °C
15,O=C(Cn1ccnc1)c1ccc(F)cc1F,125 °C
16,CC(=NO)c1noc2ccccc12,193 to 195 °C
17,O=C1OC(OC(=O)c2cccnc2Cl)c2ccccc21 (centres undefined),137 to 138 °C
18,CC(=O)Nc1cccc(CNC(=O)[C@H]2N(C(=O)[C@@H](O)[C@H](Cc3ccccc3)NC(=O)c3cccc(O)c3C)CSC2(C)C)c1,145 to 147 °C
19,Cc1sc(S(C)=O)nc1-c1ccccc1 (centres undefined),96 to 97 °C
20,COc1ccc(CSc2cc(OC)c(OC)c(OC)c2)cc1,65 to 67 °C
21,CC1(C(=O)O)CCCc2c(-c3ccc(Cl)cc3)noc2C1 (centres undefined),232 to 235 °C
22,CCOC(=O)Cc1ccc2c(c1)sc1ccc(Cl)cc12,88 to 90 °C
23,CC(C)SN(c1ccccc1)P(=O)(c1ccccc1)c1ccccc1,148 to 150 °C
24,C=C(C)Cc1c(C)c(NC(=O)CC(C)(C)C)c(C)c(Cc2ccc(C(C)C)cc2)c1O,124 to 125 °C
25,COCn1ccnc1C(O)(c1ccc(Cl)cc1)c1ccc(Cl)cc1,145 to 146 °C

row,SMILES,melting point
1,COc1cc2nc(N)nc(-c3ccc(O)cc3)c2cc1OC,245 to 248 °C
2,CC(=O)NCC1CN(c2cc(F)c(N3CCN(C(=O)COC(=O)c4cccnc4)CC3)c(F)c2)C(=O)O1 (centres undefined),213 to 214 °C
3,CC1(C)C=Cc2cc(C(=O)NCCO)ccc2O1,60 to 70 °C
4,CC1c2ccccc2-c2ccc(F)cc2N1S(=O)(=O)c1ccc(O)cc1 (centres undefined),162 to 165 °C
5,CSCCC(NC(=O)c1ccc(Cl)cc1)NC(=NC#N)Nc1cccnc1 (centres undefined),104 to 105 °C
6,O=C(O)c1cn(-c2cccc(F)c2)c2cc(Cl)ccc2c1=O,284 to 286 °C
7,CCN1C(=O)C(C)(C)C(=O)N(C)c2cc(CN(CCn3ccc4ccsc4c3=O)Cc3cccnc3C)ccc21,125 to 127 °C
8,COC(=O)c1ccc(CCNCC(O)c2ccccc2Cl)cc1 (centres undefined),94 to 95 °C
9,O=C1c2ccccc2C(O)N1CCCCSc1ccncc1 (centres undefined),144 to 145 °C
10,COc1ccc(-c2cc3nc(N4CCCCC4)c4ccccc4c3nn2)cc1,168 to 169 °C
11,Nc1c(CC(=O)N2CCC(O)CC2)cccc1Oc1ccccc1F,160 to 161 °C
12,COc1ccc(NC(=O)c2ccc(OC)c(N)c2)cc1,164 to 167 °C
13,CCOC(=O)c1c(C2CC2)nn(CC)c1Cc1ccc(-c2ccccc2-c2nnn(C(c3ccccc3)(c3ccccc3)c3ccccc3)n2)cc1,164 to 168 °C
14,Cc1nc2ccccn2c(=O)c1CCN1CCC(c2coc3cc(F)ccc23)CC1,160 °C
15,CC1(C(=O)O)CCCc2cc(C3CCCCC3)c(Cl)cc21 (centres undefined),167 to 168 °C
16,COc1ccccc1N1Sc2ccccc2CC1=O,171 °C
17,N=C(N)NC(=O)c1cn([C@H](CO)CCc2ccccc2)cn1,111 to 113 °C
18,CCc1nc(C)c(C(C)(O)c2ccsc2)o1 (centres undefined),77.5 to 79 °C
19,CCC(=O)N1CCC(NC(=O)Nc2ccc(C(F)(F)F)cc2)CC1,224 to 228 °C
20,O=C(Nc1ccccc1-c1nnn[nH]1)C(=O)N1CCC(Cc2ccc(F)cc2)CC1,107 to 109 °C
21,CCCN(CCCc1c[nH]c2ccc(F)cc12)C1COc2c(ccc3ncccc23)C1 (centres undefined),134 °C
22,CCOC(=O)c1nc(-c2nccs2)cs1,143 to 145 °C
23,Cc1nc(=O)c(C)c(NCCc2cccn2C)[nH]1,246 to 247 °C
24,O=S(=O)(c1ccc(Oc2cccc(C(F)(F)F)c2)cc1)c1ccc(Oc2cccc(C(F)(F)F)c2)cc1,96.5 to 97.5 °C
25,O=C(O)CN[C@H]1C[C@H](O)CO1 (relative stereo),53 to 56 °C

row,SMILES,melting point
1,CSc1nccn1CC(=O)NC1C(=O)N2C(C(=O)O)=C(COC(C)=O)CSC12 (centres undefined),245 to 247 °C
2,Fc1cc(-c2ccc3nnn(Cc4ccc5ncccc5c4)c3n2)ccc1OCC1CC1,160 to 162 °C
3,CCCCCN1C(=O)C(NC(=O)OC(C)(C)C)c2ccccc21 (centres undefined),145 to 147 °C
4,CCOc1cc(C(=CC#N)c2ccc3c(c2)nnn3C)ccc1OC,180 to 182 °C
5,O=C(NO)c1ccc(CNC(=O)c2[nH]c(-c3ccccc3)cc2-c2cccc(Br)c2)cc1,145 to 146 °C
6,O=S(=O)(N=Cc1ccc(Cl)cc1)c1ccc(Cl)cc1,128 °C
7,Cc1oc2ccccc2c1C(=O)N(Cc1ccccc1)Cc1ccc2cc(O)ccc2c1,190 to 193 °C
8,COC/C(=C1/SC(=O)NC1=O)c1cccc2ccccc12,133 to 134 °C
9,C1COCCOCCOCCOCCO1,70 to 71 °C
10,COc1ccccc1OCCNCCCc1c[nH]c2ccc(F)cc12,125 to 126 °C
11,Cn1ncc(CO)c1-c1ccc(Cl)cc1C(O)c1ccccc1F (centres undefined),152 to 155 °C
12,CC(C)COc1nc(N)c2ncn(C3C=CCCC3)c2n1 (centres undefined),132 to 135 °C
13,CC(CN1CCCCC1)Nc1ccnc2cc(Cl)ccc12 (racemic),168 to 171 °C
14,CNc1cc(NS(=O)(=O)c2ccccc2)ccc1[N+](=O)[O-],172 to 174 °C
15,COC(=O)CCCNS(=O)(=O)c1ccc2ccccc2c1,123 to 125 °C
16,Cn1ccc(-c2ccc3c(ccn3-c3ccc(F)cc3)c2)n1,123 to 125 °C
17,COc1cc(COc2nn(-c3ccccc3)cc2/C=C2\SC(=O)N(C)C2=O)ccc1OCc1nc(-c2ccco2)oc1C,215 to 216 °C
18,COC(=O)c1ccc(Cc2c[nH]c3ccc(C=O)cc23)c(OC)c1,117 to 120 °C
19,CC#CCOc1ccc(C=O)cc1OC,90 to 92 °C
20,N#CC(C#N)=C(NCCN1CCCCC1)N1CCC(CN2CCCCC2)CC1,78 to 80 °C
21,CC(CC(C(=O)N(C)C)(c1ccccc1)c1ccccc1)N1CCC(NC(=O)c2ccccc2O)C(O)C1 (centres undefined),154 °C
22,COc1ccc(C(C#N)=C(C)C)cc1OC,93 to 95 °C
23,CC(C)(C)ONC(=O)C(C)(C)CCOc1ccc(C2=NNC(=O)CC2)cc1Cl,133 to 135 °C
24,Clc1ccc(SC(CCc2ccccc2)Cn2ccnc2)cc1Cl (centres undefined),145 to 147 °C
25,O=C1NCC(c2ccco2)SCC1N1C(=O)c2ccccc2C1=O (centres undefined),235 °C

row,SMILES,melting point
1,c1cncc(CCc2ccc(C3OCCO3)cc2)c1,46 to 47 °C
2,CC(=O)C(C(=O)OC(C)(C)C)C(=O)c1ccc(C(=O)C(C(C)=O)C(=O)OC(C)(C)C)cc1 (centres undefined),94 to 96 °C
3,Cc1cnc2n1-c1cc(Cl)c(Cl)cc1N=C(c1ccc(-n3c(C)nc4cnccc43)cc1)C2,243 to 246 °C
4,CCCCc1oc2ccccc2c1C(=O)NCc1ccc2c(-c3ccc(C)cc3)c(O)ccc2c1,103 to 105 °C
5,ClC1=Nc2cccc(Br)c2C2=NCCN12,220 to 223 °C
6,O=S(=O)(NC(c1ccc(F)cc1)c1ccnn1-c1ccc(F)cc1)c1ccc(Cl)s1 (centres undefined),159 to 160 °C
7,Fc1ccc2sc(COc3cccc(CBr)c3)nc2c1,99 to 100 °C
8,Cc1ncc(CSC(=O)c2ccccc2)c(C=O)c1O,127 to 130 °C
9,O=C(Nc1ccc(Oc2ccccc2)cc1)Nc1ccc(C(F)(F)F)cc1,211 to 213 °C
10,O=C(Nc1ccc(Cl)c(Cl)c1)c1cc(C(F)(F)F)cc([N+](=O)[O-])c1N1CCCCC1,144 °C
11,O=c1c2c(Cl)cc(Cl)cc2[nH]c2c(O)nn(-c3ccccc3)c(=O)c12,361 to 363 °C
12,Nc1sc2c(c1C(=O)c1cccs1)CCC2,133 to 134 °C
13,CN(C)Cc1ccccc1C(O)c1ccsc1 (centres undefined),77 to 78 °C
14,C[C@]1(COC(=O)N2CCc3cc(Cl)ccc32)Cn2cc([N+](=O)[O-])nc2O1,189 to 191 °C
15,CCOC(=O)/C=C/c1cc(OCOC)nn1Cc1ccc(Cl)cc1Cl,98 to 99 °C
16,CCCc1nc(C(C)(C)O)c(C(=O)O)n1Cc1ccc(-c2ccccc2C(=O)C(=O)O)cc1,183 to 185 °C
17,C=C1CN(Cc2ccc(C(=O)Nc3ccccc3N)cc2)C(CC(=O)O)c2ccccc21 (centres undefined),> 230 °C
18,CC1=NN=C(c2ccc([N+](=O)[O-])cc2)c2cc3c(cc2C1)OCCOC3,204 to 206 °C
19,Cc1noc(C)c1S(=O)(=O)n1c(CCCC(=O)O)cc2cc(Cl)ccc21,150 to 154 °C
20,CC1(N)CN(c2cc3c(cc2F)c(=O)c(C(=O)O)cn3-c2ccc(F)cc2)C1,270 to 276 °C
21,Fc1ccccc1-n1c(CN2CCOCC2)nnc1-c1ccc(-c2ccccc2)cc1,129 to 131 °C
22,O=C1C(=O)N(C(c2ccccc2)c2ccccc2)c2c(Cl)cccc21,172 to 173 °C
23,O=C1c2cccc3cccc(c23)C(=O)N1CCN1CCN(CCO)CC1,165 to 166 °C
24,CCOC(=O)COc1ccc(Oc2nc(Cl)cc3ccccc23)cc1,97 °C

# From a melting point compilation (Tetko et al.; mined from patent text by program, amines drawn as free bases though some values may be those of a salt)
